Data published in ChEMBL document CHEMBL1201862, “PubChem BioAssay data set” (2004).
Active and inactive are the calls of the source.

Key:
[1] = molecular target: T1, Neuropeptide Y receptor type 1 (Homo sapiens, UniProt P25929); assay: Fluorescence-based counterscreen for agonists of NPY-Y2: cell-based high-throughput dose response assay for agonists of NPY-Y1.; assay type: functional
T1 sequence (P25929 whole entry): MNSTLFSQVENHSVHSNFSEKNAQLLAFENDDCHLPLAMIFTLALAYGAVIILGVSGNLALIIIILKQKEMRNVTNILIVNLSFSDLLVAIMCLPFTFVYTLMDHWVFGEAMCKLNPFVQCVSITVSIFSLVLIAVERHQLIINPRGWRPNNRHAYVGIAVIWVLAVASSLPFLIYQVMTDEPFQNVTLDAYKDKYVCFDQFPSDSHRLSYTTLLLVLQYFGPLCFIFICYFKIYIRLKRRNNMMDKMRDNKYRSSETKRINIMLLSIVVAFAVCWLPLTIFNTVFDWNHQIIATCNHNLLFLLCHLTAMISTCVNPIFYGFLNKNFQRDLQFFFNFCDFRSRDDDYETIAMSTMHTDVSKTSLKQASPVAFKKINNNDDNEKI

HEK293 = assay: Fluorescence-based counterscreen for potentiators or agonists of NPY-Y2: cell-based high-throughput dose response assay to identify inhibitors of cyclic nucleotide gated ion channel (CNGC) activity. In this assay, the parental HEK293 cell line transfected with a cyclic-nucleotide gated ion channel (CNGC)-based cAMP sensor is used to measure inhibition of isoproterenol-induced CNGC activity by test compound.; assay type: functional; conditions: Homo sapiens;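 note: stimulus is 1 µM isoproterenol at EC100 plus PDE inhibitor Ro 20-1724 at 25 µM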
[2] = molecular target: T2, Neuropeptide Y receptor type 2 (Homo sapiens, UniProt P49146); assay: Fluorescence-based cell-based high-throughput dose response assay for agonists of NPY-Y2. [Related pubchem assays: 1703 (Screening assay (CNGC inhibitors).), 1359 (Screening assay (NPY-Y2 potentiators or agonists).), 1304 (Screening assay (NPY-Y1 potentiators or agonists).), 1710 (Screening assay (NPY-Y2 agonists).), 1791 (Summary AID.)]; assay type: functional
T2 sequence (P49146 whole entry): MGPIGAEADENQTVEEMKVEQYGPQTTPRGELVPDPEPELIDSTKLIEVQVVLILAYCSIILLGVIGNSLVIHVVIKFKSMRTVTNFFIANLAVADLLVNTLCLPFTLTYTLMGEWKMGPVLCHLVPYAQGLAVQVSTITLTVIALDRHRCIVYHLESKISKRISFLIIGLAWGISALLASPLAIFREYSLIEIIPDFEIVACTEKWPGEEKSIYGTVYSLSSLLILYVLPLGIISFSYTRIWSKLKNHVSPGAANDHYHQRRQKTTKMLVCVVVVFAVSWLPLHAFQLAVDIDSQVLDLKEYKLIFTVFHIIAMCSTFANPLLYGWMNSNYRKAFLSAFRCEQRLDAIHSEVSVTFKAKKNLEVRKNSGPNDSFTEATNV

[3] = molecular target: G2/mitotic-specific cyclin-B1 (Homo sapiens, UniProt P14635); assay: Counterscreen assay for inhibitors of Wee1 degradation: dose response cell-based assay to identify inhibitors of cyclin B degradation. [Related pubchem assays: 1410, 1321 ]; assay type: functional
[4] = inhibitors of firefly luciferase expression or activity, dose response, H4 neuroglioma cells, luminescence (AID 1990); assay type: functional, cell-based
Cysteine protease ATG4B = molecular target: T3, Cysteine protease ATG4B (Homo sapiens, UniProt Q9Y4P1); assay type: functional;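 note: Fluorescence-based dose-response confirmation assay measuring inhibition of ATG4B activity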
T3 sequence (Q9Y4P1 whole entry): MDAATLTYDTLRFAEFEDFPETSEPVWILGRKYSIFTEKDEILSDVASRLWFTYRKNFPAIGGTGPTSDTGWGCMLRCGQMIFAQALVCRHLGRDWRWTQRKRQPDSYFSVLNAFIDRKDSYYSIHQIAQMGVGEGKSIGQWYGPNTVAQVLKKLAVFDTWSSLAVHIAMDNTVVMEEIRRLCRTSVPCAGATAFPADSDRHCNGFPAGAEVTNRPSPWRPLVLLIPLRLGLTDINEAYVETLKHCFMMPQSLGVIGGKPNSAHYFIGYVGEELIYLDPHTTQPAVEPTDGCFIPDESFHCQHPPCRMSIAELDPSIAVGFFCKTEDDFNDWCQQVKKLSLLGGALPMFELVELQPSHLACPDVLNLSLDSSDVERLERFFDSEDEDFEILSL

Phospholipase A2 = Phospholipase A2 (Homo sapiens, UniProt P04054); assay type: functional;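 note: confirmatory dose-response counterscreen on phospholipase A2, testing hits that came from an ultra-high-throughput screen for ATG4B inhibitors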
[5] = Luminescence Cell-Based Dose Response HTS to Identify Inhibitors of 5'UTR Stem-Loop Driven Prion Protein mRNA Translation in H4 Neuroglioblastoma Cells. [Related pubchem assays: 1827 (Project Summary), 1813 (Primary HTS)]; assay type: functional
[6] = inhibitors of SNCA 5'UTR-driven reporter translation, confirmation, H4 neuroglioma cells, luminescence (AID 1988); assay type: functional, cell-based
Wee1-like protein kinase = Wee1-like protein kinase (Homo sapiens, UniProt P30291); assay: Dose Response Cell-based Assay for Inhibitors of Wee1 Degradation. [Related pubchem assays: 1410, 1321 ]; assay type: functional
[7] = inhibitors of Bluetongue virus cytopathic effect, confirmation, arbovirus, BSR cells (AID 1250); assay type: functional;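 note: protection from viral cytopathic effect measured as cell viability by ATP luminescence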

Wee1-like protein kinase, sequence (P30291 whole entry): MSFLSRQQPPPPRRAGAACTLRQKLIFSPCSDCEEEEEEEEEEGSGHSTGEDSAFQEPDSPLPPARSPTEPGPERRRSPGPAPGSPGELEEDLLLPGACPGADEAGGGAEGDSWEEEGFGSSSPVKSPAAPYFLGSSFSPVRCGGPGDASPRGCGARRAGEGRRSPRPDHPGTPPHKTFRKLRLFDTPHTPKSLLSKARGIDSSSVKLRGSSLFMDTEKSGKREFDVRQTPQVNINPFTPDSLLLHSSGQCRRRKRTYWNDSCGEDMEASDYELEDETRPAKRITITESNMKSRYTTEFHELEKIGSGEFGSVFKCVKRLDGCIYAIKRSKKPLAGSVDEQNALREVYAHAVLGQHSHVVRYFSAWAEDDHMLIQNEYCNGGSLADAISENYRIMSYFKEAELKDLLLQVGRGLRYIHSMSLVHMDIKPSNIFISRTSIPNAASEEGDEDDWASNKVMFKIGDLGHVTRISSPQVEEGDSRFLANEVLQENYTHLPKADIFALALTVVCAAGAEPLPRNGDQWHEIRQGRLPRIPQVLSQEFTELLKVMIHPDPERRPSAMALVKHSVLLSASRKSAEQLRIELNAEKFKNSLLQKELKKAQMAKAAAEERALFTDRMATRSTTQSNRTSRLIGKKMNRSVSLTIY
G2/mitotic-specific cyclin-B1, sequence (P14635 whole entry): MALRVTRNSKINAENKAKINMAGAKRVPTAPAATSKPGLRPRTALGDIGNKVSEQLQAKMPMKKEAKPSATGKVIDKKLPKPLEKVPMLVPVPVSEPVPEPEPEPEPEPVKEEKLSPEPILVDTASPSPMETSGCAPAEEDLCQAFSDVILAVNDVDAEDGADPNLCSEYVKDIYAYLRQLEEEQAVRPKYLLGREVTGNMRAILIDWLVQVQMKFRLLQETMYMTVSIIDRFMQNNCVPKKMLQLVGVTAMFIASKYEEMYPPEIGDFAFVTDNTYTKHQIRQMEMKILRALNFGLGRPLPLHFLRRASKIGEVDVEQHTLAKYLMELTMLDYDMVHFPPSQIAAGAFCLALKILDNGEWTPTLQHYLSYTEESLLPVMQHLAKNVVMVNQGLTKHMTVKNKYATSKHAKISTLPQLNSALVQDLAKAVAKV
Phospholipase A2, sequence (P04054 whole entry): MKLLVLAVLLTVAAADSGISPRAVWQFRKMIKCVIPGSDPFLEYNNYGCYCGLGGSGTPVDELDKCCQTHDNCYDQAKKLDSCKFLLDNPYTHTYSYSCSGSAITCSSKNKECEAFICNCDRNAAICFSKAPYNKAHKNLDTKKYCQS

For `Cc1ccc(Cl)cc1NC(=O)c1cc2ccccc2cc1O`, the EC50 [1] was 17.1 µM (not active), the EC50 (HEK293) was > 35.4 µM (not active) and the EC50 [2] was 15.1 µM (not active).

In the case of `CCCC1=Nc2cc(C(=O)NCc3ccco3)ccc2Sc2ccccc21`, the EC50 [3] is reported as > 49.7 µM (not active), the EC50 [4] is reported as 11.1 µM (inconclusive) and the IC50 (Cysteine protease ATG4B) is reported as 15.2 µM (active). For the same compound, the IC50 (Phospholipase A2) was 6.93 µM (active), the EC50 [5] was 11.4 µM (active) and the EC50 [6] was 8.6 µM (active). The EC50 (Wee1-like protein kinase) was > 49.7 µM (not active).

For `CN(Cc1ccccc1NC(=O)c1ccc(S(=O)(=O)N(C)C)cc1)C1CCCCC1`, the IC50 [7] was 29.9 µM (active).
